Results published in US20260166128A1, “HUMAN AMYLIN ANALOG, AND DERIVATIVE THEREOF AND USE THEREOF” (priority 2022, published 2026).
Numbered stars: 1 amine (or outer) side, 2 acyl side, 3 side chain; on linkers, the order of the positions; unused ones are H or OH. Bridge positions count the residues as written; N and C are the ends. Square brackets hold non-standard residues; d marks the D form. Side chains are listed from the residue outwards. Peptide text beside a SMILES is read from it. * marks the point of attachment. C20 diacid = O=C(O)CCCCCCCCCCCCCCCCCCC(=O)*; C18 diacid = O=C(O)CCCCCCCCCCCCCCCCC(=O)*; γGlu = O=C(O)[C@H](CCC(=O)[*:2])N[*:1]; Hyp = O=C(O)[C@@H]1C[C@@H](O)CN1; AEEA = NCCOCCOCC(=O)O

The molecules below were run against T1, human amylin receptor (Homo sapiens, UniProt O60896+P30988) (assay: Luciferase assay of amylin derivatives in amylin receptor/CRE-luc CHO cell line). Conditions: CHO-K1/Ga15/AMY3 CRE-luc cells, 24 hours incubation, F12 medium containing 10% FBS; read-out: EC50.
T1 construct: host or cells: CHO-K1/Ga15/AMY3 cells, further stably transfected with a CRE-luciferase plasmid
T1 sequence (P30988 25-474): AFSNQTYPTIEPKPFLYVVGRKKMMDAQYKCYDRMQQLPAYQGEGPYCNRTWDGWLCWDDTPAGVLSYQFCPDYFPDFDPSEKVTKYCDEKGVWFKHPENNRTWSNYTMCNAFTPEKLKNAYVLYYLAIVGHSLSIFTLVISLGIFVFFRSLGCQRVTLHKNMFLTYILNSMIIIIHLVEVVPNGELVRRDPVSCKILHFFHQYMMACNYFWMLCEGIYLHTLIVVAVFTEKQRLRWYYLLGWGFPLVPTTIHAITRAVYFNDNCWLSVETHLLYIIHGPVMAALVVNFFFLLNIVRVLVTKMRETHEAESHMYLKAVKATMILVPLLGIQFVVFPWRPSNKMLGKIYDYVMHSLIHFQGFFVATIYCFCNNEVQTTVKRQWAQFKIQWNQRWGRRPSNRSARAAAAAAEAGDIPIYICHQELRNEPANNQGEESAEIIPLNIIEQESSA
T1 sequence (O60896 24-148 partner): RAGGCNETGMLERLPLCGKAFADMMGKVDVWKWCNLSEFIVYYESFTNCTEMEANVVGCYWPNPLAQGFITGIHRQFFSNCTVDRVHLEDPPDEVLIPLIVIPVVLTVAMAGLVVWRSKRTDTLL
Type: cell-based
Protocol: The experiment was intended to detect the activity or efficacy of the amylin derivatives on a human amylin receptor in vitro by luciferase assay.
50 μL of growth medium (F12 medium containing 10% FBS) was added into each well of a white 96-well plate, and the stably transfected amylin/CRE-lue CHO cells were inoculated into the white 96-well plate at a density of about 20,000 cells/well for activity determination.

| SMILES | EC50 [nM] |
| --- | --- |
| CC[C@H](C)[C@H](NC(=O)[C@@H]1CCCN1C(=O)CNC(=O)[C@H](CC(C)C)NC(=O)[C@H](CCCCNC(=O)COCCOCCNC(=O)CC[C@H](NC(=O)CCCCCCCCCCCCCCCCCCC(=O)O)C(=O)O)NC(=O)[C@H](CC(N)=O)NC(=O)[C@H](CO)NC(=O)[C@H](CO)NC(=O)[C@H](Cc1c[nH]cn1)NC(=O)[C@H](CCCNC(=N)N)NC(=O)[C@H](CC(C)C)NC(=O)[C@H](Cc1ccccc1)NC(=O)[C@H](CC(=O)O)NC(=O)[C@H](C)NC(=O)[C@H](CC(C)C)NC(=O)[C@H](CCCNC(=N)N)NC(=O)[C@H](CCC(N)=O)NC(=O)[C@@H](NC(=O)[C@H](C)NC(=O)[C@@H]1CSSC[C@H](NC(=O)[C@@H](N)CCCNC(=N)N)C(=O)N[C@@H](CC(N)=O)C(=O)N[C@@H]([C@@H](C)O)C(=O)N[C@@H](C)C(=O)N[C@@H]([C@@H](C)O)C(=O)N1)[C@@H](C)O)C(=O)N[C@@H](CC(C)C)C(=O)N1CCC[C@H]1C(=O)N1CCC[C@H]1C(=O)N[C@H](C(=O)N[C@@H](CC(N)=O)C(=O)N[C@H](C(=O)NCC(=O)N[C@@H](CO)C(=O)N[C@@H](CC(N)=O)C(=O)N[C@H](C(=O)N1C[C@H](O)C[C@H]1C(N)=O)[C@@H](C)O)C(C)C)[C@@H](C)O [PD112] (H-RCNTATCATQRLADFLRHSSNK([AEEA-γGlu-C20 diacid])LGPILPPTNVGSNT[Hyp]-NH2; disulfide 2-7) | 0.03 |
| CC[C@H](C)[C@H](NC(=O)[C@@H]1CCCN1C(=O)CNC(=O)[C@H](CC(C)C)NC(=O)[C@H](CCCCNC(=O)COCCOCCNC(=O)CC[C@H](NC(=O)CCCCCCCCCCCCCCCCC(=O)O)C(=O)O)NC(=O)[C@H](CC(N)=O)NC(=O)[C@H](CO)NC(=O)[C@H](CO)NC(=O)[C@H](Cc1c[nH]cn1)NC(=O)[C@H](CCCNC(=N)N)NC(=O)[C@H](CC(C)C)NC(=O)[C@H](Cc1ccccc1)NC(=O)[C@H](CC(=O)O)NC(=O)[C@H](C)NC(=O)[C@H](CC(C)C)NC(=O)[C@H](CCCNC(=N)N)NC(=O)[C@H](CCC(N)=O)NC(=O)[C@@H](NC(=O)[C@H](C)NC(=O)[C@@H]1CSSC[C@H](NC(=O)[C@@H](N)CCCNC(=N)N)C(=O)N[C@@H](CC(N)=O)C(=O)N[C@@H]([C@@H](C)O)C(=O)N[C@@H](C)C(=O)N[C@@H]([C@@H](C)O)C(=O)N1)[C@@H](C)O)C(=O)N[C@@H](CC(C)C)C(=O)N1CCC[C@H]1C(=O)N1CCC[C@H]1C(=O)N[C@H](C(=O)N[C@@H](CC(N)=O)C(=O)N[C@H](C(=O)NCC(=O)N[C@@H](CO)C(=O)N[C@@H](CC(N)=O)C(=O)N[C@H](C(=O)N1C[C@H](O)C[C@H]1C(N)=O)[C@@H](C)O)C(C)C)[C@@H](C)O [PD113] (H-RCNTATCATQRLADFLRHSSNK([AEEA-γGlu-C18 diacid])LGPILPPTNVGSNT[Hyp]-NH2; disulfide 2-7) | 0.017 |
| CC[C@H](C)[C@H](NC(=O)[C@@H]1CCCN1C(=O)CNC(=O)[C@H](CC(C)C)NC(=O)[C@H](CC(N)=O)NC(=O)[C@H](CCCCNC(=O)COCCOCCNC(=O)CC[C@H](NC(=O)CCCCCCCCCCCCCCCCC(=O)O)C(=O)O)NC(=O)[C@H](CO)NC(=O)[C@H](CO)NC(=O)[C@H](Cc1c[nH]cn1)NC(=O)[C@H](CCCNC(=N)N)NC(=O)[C@H](CC(C)C)NC(=O)[C@H](Cc1ccccc1)NC(=O)[C@H](CC(=O)O)NC(=O)[C@H](C)NC(=O)[C@H](CC(C)C)NC(=O)[C@H](CCCNC(=N)N)NC(=O)[C@H](CCC(N)=O)NC(=O)[C@@H](NC(=O)[C@H](C)NC(=O)[C@@H]1CSSC[C@H](NC(=O)[C@@H](N)CCCNC(=N)N)C(=O)N[C@@H](CC(N)=O)C(=O)N[C@@H]([C@@H](C)O)C(=O)N[C@@H](C)C(=O)N[C@@H]([C@@H](C)O)C(=O)N1)[C@@H](C)O)C(=O)N[C@@H](CC(C)C)C(=O)N1CCC[C@H]1C(=O)N1CCC[C@H]1C(=O)N[C@H](C(=O)N[C@@H](CC(N)=O)C(=O)N[C@H](C(=O)NCC(=O)N[C@@H](CO)C(=O)N[C@@H](CC(N)=O)C(=O)N[C@H](C(=O)N1C[C@H](O)C[C@H]1C(N)=O)[C@@H](C)O)C(C)C)[C@@H](C)O [PD115] (H-RCNTATCATQRLADFLRHSSK([AEEA-γGlu-C18 diacid])NLGPILPPTNVGSNT[Hyp]-NH2; disulfide 2-7) | 0.011 |

Other lines, results leading:

| EC50 [nM] | SMILES |
| --- | --- |
| 0.033 | CC[C@H](C)[C@H](NC(=O)[C@@H]1CCCN1C(=O)CNC(=O)[C@H](CC(C)C)NC(=O)[C@H](CC(N)=O)NC(=O)[C@H](CC(N)=O)NC(=O)[C@H](CCCCNC(=O)COCCOCCNC(=O)CC[C@H](NC(=O)CCCCCCCCCCCCCCCCCCC(=O)O)C(=O)O)NC(=O)[C@H](CO)NC(=O)[C@H](Cc1c[nH]cn1)NC(=O)[C@H](CCCNC(=N)N)NC(=O)[C@H](CC(C)C)NC(=O)[C@H](Cc1ccccc1)NC(=O)[C@H](CC(=O)O)NC(=O)[C@H](C)NC(=O)[C@H](CC(C)C)NC(=O)[C@H](CCCNC(=N)N)NC(=O)[C@H](CCC(N)=O)NC(=O)[C@@H](NC(=O)[C@H](C)NC(=O)[C@@H]1CSSC[C@H](NC(=O)[C@@H](N)CCCNC(=N)N)C(=O)N[C@@H](CC(N)=O)C(=O)N[C@@H]([C@@H](C)O)C(=O)N[C@@H](C)C(=O)N[C@@H]([C@@H](C)O)C(=O)N1)[C@@H](C)O)C(=O)N[C@@H](CC(C)C)C(=O)N1CCC[C@H]1C(=O)N1CCC[C@H]1C(=O)N[C@H](C(=O)N[C@@H](CC(N)=O)C(=O)N[C@H](C(=O)NCC(=O)N[C@@H](CO)C(=O)N[C@@H](CC(N)=O)C(=O)N[C@H](C(=O)N1C[C@H](O)C[C@H]1C(N)=O)[C@@H](C)O)C(C)C)[C@@H](C)O [PD116] (H-RCNTATCATQRLADFLRHSK([AEEA-γGlu-C20 diacid])NNLGPILPPTNVGSNT[Hyp]-NH2; disulfide 2-7) |
| 0.032 | CC[C@H](C)[C@H](NC(=O)[C@@H]1CCCN1C(=O)CNC(=O)[C@H](CC(C)C)NC(=O)[C@H](CC(N)=O)NC(=O)[C@H](CC(N)=O)NC(=O)[C@H](CO)NC(=O)[C@H](CCCCNC(=O)COCCOCCNC(=O)CC[C@H](NC(=O)CCCCCCCCCCCCCCCCCCC(=O)O)C(=O)O)NC(=O)[C@H](Cc1c[nH]cn1)NC(=O)[C@H](CCCNC(=N)N)NC(=O)[C@H](CC(C)C)NC(=O)[C@H](Cc1ccccc1)NC(=O)[C@H](CC(=O)O)NC(=O)[C@H](C)NC(=O)[C@H](CC(C)C)NC(=O)[C@H](CCCNC(=N)N)NC(=O)[C@H](CCC(N)=O)NC(=O)[C@@H](NC(=O)[C@H](C)NC(=O)[C@@H]1CSSC[C@H](NC(=O)[C@@H](N)CCCNC(=N)N)C(=O)N[C@@H](CC(N)=O)C(=O)N[C@@H]([C@@H](C)O)C(=O)N[C@@H](C)C(=O)N[C@@H]([C@@H](C)O)C(=O)N1)[C@@H](C)O)C(=O)N[C@@H](CC(C)C)C(=O)N1CCC[C@H]1C(=O)N1CCC[C@H]1C(=O)N[C@H](C(=O)N[C@@H](CC(N)=O)C(=O)N[C@H](C(=O)NCC(=O)N[C@@H](CO)C(=O)N[C@@H](CC(N)=O)C(=O)N[C@H](C(=O)N1C[C@H](O)C[C@H]1C(N)=O)[C@@H](C)O)C(C)C)[C@@H](C)O [PD118] (H-RCNTATCATQRLADFLRHK([AEEA-γGlu-C20 diacid])SNNLGPILPPTNVGSNT[Hyp]-NH2; disulfide 2-7) |
